The source of these data is patent publication US20250049035A1, “MICROBIOCIDAL BICYCLE HETEROCYCLIC DERIVATIVES” (SYNGENTA CROP PROTECTION AG, priority 2021, published 2025).

For orientation: pest or weed control means the degree to which the test organism was suppressed or injured, in per cent. A low value points to weak suppression.

The subject of test [1] is Thanatephorus cucumeris (Rhizoctonia solani). Put plainly: Thanatephorus cucumeris (Rhizoctonia solani) / liquid culture (foot rot, damping-off). Type of test: cell-based. Particulars: 20 ppm; liquid culture (potato dextrose broth), growth inhibition photometrically 3-4 days after application; compared to untreated control. Here is the method:
Example B13: Thanatephorus cucumeris (Rhizoctonia solani)/Liquid Culture (Foot Rot, Damping-Off) Mycelia fragments of a newly grown liquid culture of the fungus are directly mixed into a nutrient broth (potato dextrose broth). After placing a DMSO solution of the test compounds into a microtiter plate (96-well format), the nutrient broth containing the fungal material is added. The test plates are incubated at 24° C. and the inhibition of growth is determined photometrically 3-4 days after application.

Test [2] has as its system Mycosphaerella graminicola (Septoria tritici). Nature of the test: Mycosphaerella graminicola (Septoria tritici) / liquid culture (Septoria blotch). It counts as cell-based. Particulars: Zymoseptoria tritici, liquid culture (potato dextrose broth), growth inhibition photometrically 4-5 days after application, compared to untreated control. Put shortly:
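Cryostored conidia in potato dextrose broth added to compound in DMSO, incubated at 24 °C. Growth inhibition read photometrically 4–5 days after application.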

The test system of test [3] is Monographella nivalis (Microdochium nivale). Nature of the test: Monographella nivalis (Microdochium nivale) / liquid culture (foot rot cereals). Type of test: cell-based. To be noted: liquid culture (potato dextrose broth), growth inhibition photometrically 4-5 days after application, compared to untreated control. The method in brief: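 Cryostored conidia suspended in potato dextrose broth and added to compound dispensed from DMSO solution. Growth at 24 °C; inhibition read photometrically 4–5 days after application.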

Test [4] deals with Mycosphaerella arachidis (Cercospora arachidicola). Put plainly: Mycosphaerella arachidis (Cercospora arachidicola) / liquid culture (early leaf spot). Type of test: cell-based. Particulars: liquid culture (potato dextrose broth), growth inhibition photometrically 4-5 days after application, compared to untreated control. Put shortly: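 Cryostored conidia mixed into potato dextrose broth and added to compound dispensed in DMSO. Plates held at 24 °C; growth inhibition assessed photometrically 4–5 days after application.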

Test [5] deals with Alternaria solani. Nature of the test: Alternaria solani / tomato / leaf disc (early blight). It counts as in vivo. Particulars: foliar, tomato leaf disks cv. Baby, inoculated 2 days after application, assessed 5-7 days after application, compared to untreated control. Here is the method:
Example B1: Alternaria solani/Tomato/Leaf Disc (Early Blight) Tomato leaf disks cv. Baby are placed on agar in multiwell plates (24-well format) and sprayed with the formulated test compound diluted in water. The leaf disks are inoculated with a spore suspension of the fungus 2 days after application. The inoculated leaf disks are incubated at 23° C./21° C.

Test [6] has as its system Fusarium culmorum. Put plainly: microbe, parasite or virus in culture. Type of test: cell-based. To be noted: read-out: control of Fusarium culmorum.
Test [7] has as its system Glomerella lagenarium (Colletotrichum lagenarium). Put plainly: Glomerella lagenarium (Colletotrichum lagenarium) / liquid culture (anthracnose). It counts as cell-based. Particulars: Colletotrichum orbiculare, liquid culture (potato dextrose broth), growth inhibition photometrically 3-4 days after application, compared to untreated control. The method in brief: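 Cryostored conidia in potato dextrose broth were added to wells holding compound in DMSO and incubated at 24° C. Growth inhibition read photometrically 3-4 days after application.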

Test [8] has as its system Phaeosphaeria nodorum (Septoria nodorum). Put plainly: Phaeosphaeria nodorum (Septoria nodorum) / wheat / leaf disc preventative (glume blotch). It counts as in vivo. Particulars: Parastagonospora nodorum, foliar, wheat leaf segments cv. Kanzler, inoculated 2 days after application, assessed 5-7 days after application, compared to untreated control. Put shortly: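 Wheat leaf segments (cv. Kanzler) on agar were sprayed with diluted formulated compound and inoculated with fungal spores 2 days later. Incubation was at 20 °C, 75% relative humidity and 12 h light/dark. Percent disease control versus untreated leaf disks was scored 5-7 days after application.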

The test system of test [9] is Sclerotinia sclerotiorum. Put plainly: Sclerotinia sclerotiorum / liquid culture (cottony rot). To be noted: liquid culture (potato dextrose broth), growth inhibition photometrically 3-4 days after application, compared to untreated control. Type of test: cell-based. Here is the method: Example B14: Sclerotinia sclerotiorum/Liquid Culture (Cottony Rot) Mycelia fragments of a newly grown liquid culture of the fungus are directly mixed into a nutrient broth (potato dextrose broth). After placing a DMSO solution of test compound into a microtiter plate (96-well format) the nutrient broth containing the fungal material is added. The test plates are incubated at 24° C. and the inhibition of growth is determined photometrically 3-4 days after application.

In test [10] the test system is Blumeria graminis f. sp. tritici (Erysiphe graminis f. sp. tritici). Nature of the test: Blumeria graminis f. sp. tritici / wheat / leaf disc preventative (powdery mildew). It counts as in vivo. To be noted: foliar, wheat leaf segments cv. Kanzler, inoculated 1 day after application, assessed 6-8 days after application, compared to untreated control. As for the experimental part: Example B4: Blumeria graminis f. sp. tritici (Erysiphe graminis f. sp. tritici)/Wheat/Leaf Disc Preventative (Powdery Mildew on Wheat) Wheat leaf segments cv. Kanzler are placed on agar in a multiwell plate (24-well format) and sprayed with the formulated test compound diluted in water. The leaf disks are inoculated by shaking powdery mildew infected plants above the test plates 1 day after application. The inoculated leaf disks are incubated at 20° C. and 60% relative humidity under a light regime of 24 h darkness followed by 12 h light/12 h darkness in a climate chamber and the activity of a compound is assessed as percent disease control compared to untreated when an appropriate level of disease damage appears on untreated check leaf segments (6-8 days after application).

Test [11] has as its system Pyrenophora teres. Put plainly: Pyrenophora teres / barley / leaf disc preventative (net blotch). To be noted: foliar, barley leaf segments cv. Hasso, inoculated 2 days after application, assessed 5-7 days after application, compared to untreated control. Type of test: in vivo. Put shortly:
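Leaf segments of barley cv. Hasso on agar sprayed with water-diluted formulated compound, then inoculated with spores 2 days later. Incubation at 20 °C, 65% RH, 12 h light/12 h dark.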

The test system of test [12] is Botryotinia fuckeliana (Botrytis cinerea). Nature of the test: Botryotinia fuckeliana (Botrytis cinerea) / liquid culture (gray mould). It counts as cell-based. Particulars: liquid culture (Vogels broth), growth inhibition photometrically 3-4 days after application, compared to untreated control. The method in brief:
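Conidia from cryogenic storage, suspended in Vogels nutrient broth, added to compound applied as a DMSO solution. Incubation at 24 °C; growth inhibition read photometrically 3–4 days after application.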

The structures appear in SMILES notation.

As for `C[C@@H]1c2ccsc2[C@@](C)(c2cnn(C)c2)CN1C(=O)c1nnc(-c2ccc(F)cc2F)s1` (racemic) [Compound P-9, [5-(2,4-difluorophenyl)-1,3,4-thiadiazol-2-yl]-[rac-(4S,7R)-4,7-dimethyl-7-(1-methylpyrazol-4-yl)-4,6-dihydrothieno[3,2-c]pyridin-5-yl]methanone], the “control of Thanatephorus cucumeris” value in test [1] is given as “at least 80%”. The inhibition of growth at 20 ppm in test [2], in test [3] and in [4] was ≥ 80% each time.

Regarding `C[C@H]1c2sccc2[C@@H](c2cnn(C)c2)CN1C(=O)c1nnc(-c2ccc(F)cc2F)s1` [Compound P-2, [5-(2,4-difluorophenyl)-1,3,4-thiadiazol-2-yl]-[(4R,7S)-7-methyl-4-(1-methylpyrazol-4-yl)-5,7-dihydro-4H-thieno[2,3-c]pyridin-6-yl]methanone], the pest or weed control at 200 ppm in test [5], in [8], in test [10] and in test [11] was ≥ 80% throughout. The inhibition of growth at 20 ppm in test [6], in test [7], in [2], in test [9], in test [3] and in test [4] was ≥ 80% each time. Further, the inhibition of growth at 20 ppm in test [12] is ≥ 80%.

For the compound `C[C@H]1c2sccc2[C@@](C)(c2cnn(C)c2)CN1C(=O)c1nnc(-c2ccc(F)cc2F)s1` [Compound P-6, [5-(2,4-difluorophenyl)-1,3,4-thiadiazol-2-yl]-[(4R,7S)-4,7-dimethyl-4-(1-methylpyrazol-4-yl)-5,7-dihydrothieno[2,3-c]pyridin-6-yl]methanone], the pest or weed control at 200 ppm in test [5], in [8], in test [10] and in [11] was ≥ 80% throughout. The inhibition of growth at 20 ppm in test [6], in [7], in test [2], in test [9], in [3] and in [4] was ≥ 80% in each case. In addition, the inhibition of growth at 20 ppm in test [12] is ≥ 80%.

Regarding `Cn1cc(C2(C)CN(C(=O)c3nnc(-c4ccc(F)cc4F)s3)Cc3sccc32)cn1` (stereo not shown) [Compound P-18, methylpyrazol-4-yl)-5,7-[5-(2,4-difluorophenyl)-1,3,4-thiadiazol-2-yl]-[4-methyl-4-(1-dihydrothieno[2,3-c]pyridin-6-yl]methanone], the pest or weed control at 200 ppm in [5], in test [8], in test [10] and in test [11] was ≥ 80% throughout. The inhibition of growth at 20 ppm in test [6], in test [7], in test [2], in test [9], in [4] and in [12] was ≥ 80% in each case.

Turning to `Cc1c(C2CN(C(=O)c3cc(-c4ccc(F)cc4F)on3)Cc3sccc32)cnn1C` (stereo not shown) [Compound P-32, [5-(2,4-difluorophenyl)isoxazol-3-yl]-[4-(1,5-dimethylpyrazol-4-yl)-5,7-dihydro-4H-thieno[2,3-c]pyridin-6-yl]methanone], the pest or weed control at 200 ppm in test [5], in test [8], in test [10] and in test [11] was ≥ 80% in each case. For the same compound, the inhibition of growth at 20 ppm in [6], in test [7], in [2], in test [9], in test [3] and in [4] was ≥ 80% each time. The inhibition of growth at 20 ppm in test [12] is ≥ 80%.

For the compound `Cc1c(C2CN(C(=O)c3cc(-c4ccc(F)cc4F)on3)Cc3ccsc32)cnn1C` (stereo not shown) [Compound P-33, [5-(2,4-difluorophenyl)isoxazol-3-yl]-[7-(1,5-dimethylpyrazol-4-yl)-6,7-dihydro-4H-thieno[3,2-c]pyridin-5-yl]methanone], the pest or weed control at 200 ppm in test [5], in [8], in [10] and in test [11] was ≥ 80% throughout. Moreover, the inhibition of growth at 20 ppm in test [6], in [7], in [2], in test [9], in test [3] and in test [4] was ≥ 80% in each case. For the same compound, the inhibition of growth at 20 ppm in [12] is ≥ 80%.
